Our source for the GI50 and TGI values is PubChem BioAssay (NCI).

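Dose response: 5 concentrations. Exposure: 48 h. Format: 96-well plates. Endpoint: linear interpolation; highest concentration if not reached. The concentration for 50% growth inhibition is given as GI50. TGI is the concentration that stops growth completely.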

Among the test systems are EKVX NSCLC; OVCAR-3 ovarian; ACHN renal; A498 renal; RPMI-8226 leukemia; HCT-15 colon; DU-145 prostate; SK-MEL-5 melanoma; MDA-MB-435; SF-268 CNS.
Common to all, as to assay: growth of human tumour cells (NCI), 48 h

Turning to `O=C(O)c1ccc(S(=O)(=O)Nc2ccc3oc4c(c3c2)C(=O)CCC4)cc1`, the GI50 in the experiment with EKVX NSCLC, in the experiment on OVCAR-3 ovarian, with ACHN renal, in the experiment on A498 renal, in the experiment with RPMI-8226 leukemia and with HCT-15 colon was above 100 µM in each case. The GI50 in the experiment with DU-145 prostate, with SK-MEL-5 melanoma, with MDA-MB-435 and in the experiment on SF-268 CNS was above 100 µM each time. Moreover, the TGI in the experiment on EKVX NSCLC, in the experiment with OVCAR-3 ovarian, in the experiment on ACHN renal, with A498 renal, with RPMI-8226 leukemia and with HCT-15 colon was above 100 µM in each case. Further, the TGI in the experiment with DU-145 prostate, in the experiment on SK-MEL-5 melanoma, in the experiment with MDA-MB-435 and in the experiment with SF-268 CNS was above 100 µM each time.

With `C[C@@H](CN1CC(=O)NC(=O)C1)N1CC(=O)NC(=O)C1`, the TGI in the experiment on EKVX NSCLC was determined as 546 µM; in the experiment with OVCAR-3 ovarian, 767 µM; in the experiment with ACHN renal, 753 µM; in the experiment on A498 renal, 698 µM; in the experiment with RPMI-8226 leukemia it was 2300 µM; in the experiment on HCT-15 colon, 823 µM. The TGI with DU-145 prostate came out at 1430 µM; in the experiment on SK-MEL-5 melanoma, 543 µM; with MDA-MB-435, 1470 µM; in the experiment with SF-268 CNS, 1160 µM.

Turning to `O=C(O)CCC/C=C\C[C@H]1C=CC(=O)/C1=C/C[C@@H](O)CCc1cccc(C(F)(F)F)c1`, the GI50 was 3.73 µM in the experiment with EKVX NSCLC; 1.99 µM with OVCAR-3 ovarian; 1.65 µM in the experiment with ACHN renal; 2.13 µM with A498 renal; 1.91 µM with RPMI-8226 leukemia; 1.79 µM with HCT-15 colon. Also, the GI50 is 2.43 µM in the experiment on DU-145 prostate, 1.71 µM with SK-MEL-5 melanoma, 1.82 µM in the experiment on MDA-MB-435 and 3.22 µM in the experiment on SF-268 CNS. Further, the TGI in the experiment on EKVX NSCLC is 14.3 µM; in the experiment on OVCAR-3 ovarian, 5.61 µM; with ACHN renal it was 3.22 µM; with A498 renal it was 4.06 µM; in the experiment with RPMI-8226 leukemia, 12.2 µM; in the experiment with HCT-15 colon it was 4.88 µM. Besides, the TGI with DU-145 prostate was determined as 10.3 µM; in the experiment with SK-MEL-5 melanoma it was 3.14 µM; with MDA-MB-435, 4.94 µM; in the experiment with SF-268 CNS, 16.5 µM.

For the molecule `COc1cc2c(cc1OC)C(OC)N(C)c1c-2ccc2cc3c(cc12)OCO3` (centres undefined), the TGI in the experiment with EKVX NSCLC is 15 µM; in the experiment on OVCAR-3 ovarian it was 5.68 µM; with ACHN renal it was above 75 µM; with A498 renal, 1.83 µM; in the experiment on RPMI-8226 leukemia, 13.4 µM; in the experiment on HCT-15 colon it was above 75 µM. Further, the TGI in the experiment with DU-145 prostate is above 75 µM; in the experiment on SK-MEL-5 melanoma it was 6.76 µM; in the experiment on MDA-MB-435, above 75 µM; in the experiment on SF-268 CNS it was above 20.9 µM.

As for `CCCCCCCCCc1cc[n+](CC(=O)c2ccc([N+](=O)[O-])cc2)cc1`, the GI50 in the experiment with EKVX NSCLC is 0.914 µM; in the experiment on OVCAR-3 ovarian, 1.04 µM; in the experiment on ACHN renal it was 1.42 µM; with A498 renal, 1.26 µM; with RPMI-8226 leukemia, 0.439 µM; in the experiment with HCT-15 colon, 1.19 µM. The GI50 in the experiment with DU-145 prostate was 0.729 µM; in the experiment on SK-MEL-5 melanoma it was 0.42 µM; with MDA-MB-435, 0.391 µM; in the experiment on SF-268 CNS, 1.34 µM. The TGI was determined as 2.55 µM in the experiment on EKVX NSCLC; 2.28 µM in the experiment on OVCAR-3 ovarian; 2.82 µM with ACHN renal; 3.14 µM with A498 renal; 2.15 µM in the experiment with RPMI-8226 leukemia; 2.57 µM with HCT-15 colon. Also, the TGI was determined as 2.04 µM in the experiment on DU-145 prostate, 1.54 µM with SK-MEL-5 melanoma, 1.56 µM in the experiment on MDA-MB-435 and 2.81 µM in the experiment with SF-268 CNS.

For `Cc1cc(O)c(C2=NN(c3ccc(S(N)(=O)=O)cc3)C(c3ccc(N(C)C)cc3)C2)c(C)c1Cl` (centres undefined), the GI50 in the experiment with EKVX NSCLC is 13.3 µM; in the experiment on OVCAR-3 ovarian it was 17.8 µM; in the experiment on ACHN renal it was 14.9 µM; in the experiment on A498 renal it was 26.7 µM; in the experiment with RPMI-8226 leukemia it was 7.25 µM; in the experiment on HCT-15 colon, 14.2 µM. The GI50 is 19.2 µM in the experiment on DU-145 prostate, 14.5 µM in the experiment on SK-MEL-5 melanoma, 13.4 µM with MDA-MB-435 and 18.7 µM with SF-268 CNS. In addition, the TGI came out at 36.1 µM with EKVX NSCLC; 33.3 µM in the experiment on OVCAR-3 ovarian; 30.6 µM with ACHN renal; 43.9 µM with A498 renal; 37.5 µM in the experiment with RPMI-8226 leukemia; 32 µM in the experiment on HCT-15 colon. Moreover, the TGI in the experiment on DU-145 prostate came to 38.4 µM; with SK-MEL-5 melanoma, 27.8 µM; in the experiment with MDA-MB-435, 31 µM; in the experiment on SF-268 CNS, 37.2 µM.

With `C=C1c2[nH]c3ccccc3c2C2C(CC)C1CCN2C` (centres undefined), the TGI was above 100 µM in the experiment with EKVX NSCLC; above 100 µM in the experiment on OVCAR-3 ovarian; above 100 µM with ACHN renal; 70 µM in the experiment on A498 renal; 88.8 µM in the experiment on RPMI-8226 leukemia; above 100 µM in the experiment with HCT-15 colon. Also, the TGI with DU-145 prostate, in the experiment with SK-MEL-5 melanoma, in the experiment on MDA-MB-435 and in the experiment with SF-268 CNS was above 100 µM throughout.

With `CN1CCN(c2cc(C(=O)Nc3cc4cc(-c5cnn(C)c5)ccc4cn3)ccn2)CC1`, the GI50 is 0.302 µM in the experiment on EKVX NSCLC; 0.0425 µM with OVCAR-3 ovarian; 0.0597 µM in the experiment with ACHN renal; 0.0605 µM in the experiment with A498 renal; 0.108 µM in the experiment on RPMI-8226 leukemia; 0.0666 µM in the experiment with HCT-15 colon. Further, the GI50 in the experiment with DU-145 prostate is 0.0971 µM; with SK-MEL-5 melanoma it was 0.155 µM; in the experiment on MDA-MB-435 it was 0.169 µM; in the experiment on SF-268 CNS it was 0.2 µM. In addition, the TGI in the experiment on EKVX NSCLC was found to be 14.3 µM; in the experiment with OVCAR-3 ovarian, 0.288 µM; in the experiment on ACHN renal, 0.548 µM; in the experiment with A498 renal, 0.447 µM; in the experiment on HCT-15 colon, 2.46 µM; in the experiment on DU-145 prostate, 11.4 µM. Also, the TGI in the experiment with SK-MEL-5 melanoma is 0.331 µM; in the experiment with MDA-MB-435 it was 13.2 µM; with SF-268 CNS it was 6.59 µM.
